US12653817B2, “Pharmaceutical composition comprising protein kinase inhibitor and chemotherapeutic drug and use thereof” (SHENZHEN CHIPSCREEN BIOSCIENCES CO., LTD., priority 2020, dated 2026)
“Also recorded” adds a separate entry of the source.

Legend:
[1] = system: platinum-refractory/resistant relapsed advanced ovarian cancer; details: historical data; cited from earlier work
[2] = system: relapsed and refractory ovarian cancer; experiment: Phase Ib single-arm clinical trial of chiauranib capsules, efficacy; type: in vivo, human
Description: A single-arm, multi-center, non-randomized, open-label phase Ib trial.
Main inclusion criteria: Patients with histologically diagnosed epithelial ovarian cancer, fallopian tube cancer or primary peritoneal carcinoma; patients who had received platinum-based chemotherapy regimens, and platinum-resistant patients who achieved progressive or relapsed disease after had received ≥2 different chemotherapy regimens; platinum-sensitive patients who achieved progressive or relapsed disease after had received ≥2 different chemotherapy regimens, or who refused to receive further chemotherapy.
(§1) Medication regimen: 50 mg of chiauranib was taken orally every morning on an empty stomach, once a day, every 28 days as a treatment cycle, and there was no drug withdrawal interval between the treatment cycles. The treatment was continued until any of the following conditions occurred (whichever occurred first): progressive disease, intolerable toxicity reaction, death, withdrawal of informed consent, or loss to follow-up.
Efficacy indicators: The efficacy indicators were evaluated by investigators and imaging experts according to RECIST1.1 criteria.
Main: Objective response rate (ORR).
Secondary: Progression-free survival (PFS), time to progression (TTP), 16-week disease control rate (16W-DCR), duration of response (DOR) of disease, overall survival (OS).
Twenty-five patients with relapsed and refractory ovarian cancer were enrolled in the study, and the number of previous treatment regimens they had received was ≥3. 3 cases (12.0%) were sensitive to the last platinum-containing chemotherapy, and 22 cases (88.0%) were refractory or resistant to the last platinum-containing chemotherapy. As of the cut-off date for trial data (Mar. 20, 2019), 16 patients (64.0%) discontinued the treatment due to progressive disease, 3 patients (12.0%) discontinued the treatment due to adverse events, and other reasons for the discontinuation of the treatment comprised voluntary withdrawal of subjects, end of trial and loss to follow-up.
The full analysis set (FAS) and safety data set (SS) were used for analysis, and 25 subjects were included in each data set.

[3] = Phase Ib single-arm clinical trial of chiauranib capsules, safety evaluation; type: in vivo
Procedure: as §1
The safety indicators comprised adverse events, vital signs, ECG and abnormal laboratory results, which were evaluated according to CTCAE V4.03. Twenty-five patients with relapsed and refractory ovarian cancer were enrolled in the study and included in the safety data set (SS) for analysis.

[4] = 25 patients, cut-off Mar. 20, 2019
[5] = chiauranib 50 mg orally once a day, N = 25, cut-off Mar. 20, 2019
[6] = increase in serum creatine phosphokinase MB, 25 subjects

Compound: CC(=O)O[C@H]1C(=O)[C@@]2(C)[C@H]([C@H](OC(=O)c3ccccc3)[C@]3(O)C[C@H](OC(=O)[C@H](O)[C@@H](NC(=O)c4ccccc4)c4ccccc4)C(C)=C1C3(C)C)[C@]1(OC(C)=O)CO[C@@H]1C[C@@H]2O [paclitaxel]
- Response rate of single-agent [1]: about 21%

Compound: COc1cc([C@@H]2c3cc4c(cc3[C@@H](O[C@@H]3O[C@@H]5CO[C@@H](C)O[C@H]5[C@H](O)[C@H]3O)[C@H]3COC(=O)[C@H]23)OCO4)cc(OC)c1O [etoposide]
- Response rate of single-agent [1]: about 27%

Compound: COc1ccc2c(Oc3ccc4c(C(=O)Nc5ccccc5N)cccc4c3)ccnc2c1 [chiauranib, N-(2-aminophenyl)-6-(7-methoxyquinoline-4-oxy)-1-naphthamide]
- Discontinued the treatment due to progressive disease, % [2, 4]: 64.0%
- Discontinued the treatment due to progressive disease, patients [2, 4]: 16 patients
- Duration of response, Event ([2]; N = 25, cut-off Mar. 20, 2019): 0
- Overall survival, Event ([2]; N = 25, cut-off Mar. 20, 2019): 11
- Progression-free survival, Event (progressive disease or death) ([2]; N = 25, cut-off Mar. 20, 2019): 12
- Time to progression, Event ([2]; N = 25, cut-off Mar. 20, 2019): 11
- 16-week disease control rate ([2]; chiauranib 50 mg orally once a day, N = 25): 32.0%
- Objective response rate ([2]; chiauranib 50 mg orally once a day, N = 25, RECIST1.1): 4.0%
- Progression-free survival, median [2, 5]: 3.7 month
- Time to progression, median [2, 5]: 3.7 month
- Efficacy conclusion, single-agent ([2]; subjects with platinum-refractory/resistant relapsed ovarian cancer who had received multiple chemotherapies): shown preliminary efficacy in tumor response; also recorded: showed primary efficacy of tumor response
- Abdominal pain, % ([3]; 25 subjects): 52.0%
- Abdominal pain, cases ([3]; 25 subjects): 13 cases
- Adverse event leading to the discontinuation of the treatment, % ([3]; 25 subjects): 12.0%
- Adverse event leading to the discontinuation of the treatment, patients ([3]; 25 subjects): 3 patients
- Adverse event leading to the suspension of chiauranib, % ([3]; 25 subjects): 40.7%
- Adverse event leading to the suspension of chiauranib, patients ([3]; 25 subjects): 11 patients
- At least one common adverse event, % ([3]; 25 subjects): 100%
- At least one common adverse event, subjects ([3]; 25 subjects): 25 subjects
- Diarrhea, % ([3]; 25 subjects): 72.0%
- Diarrhea, cases ([3]; 25 subjects): 18 cases
- Discontinuation due to bile duct obstruction ([3]; 25 subjects): dysfunction syndrome, 1 case of bile duct
- Discontinuation due to electrolyte disturbance ([3]; 25 subjects): obstruction, and 1 case of electrolyte
- Fatigue, % ([3]; 25 subjects): 64.0%
- Fatigue, cases ([3]; 25 subjects): 16 cases
- Hypertension, % ([3]; 25 subjects): 44.0%
- Hypertension, cases ([3]; 25 subjects): 11 cases
- Loss of appetite, % ([3]; 25 subjects): 64.0%
- Loss of appetite, cases ([3]; 25 subjects): 16 cases
- Proteinuria, % ([3]; 25 subjects): 60.0%
- Proteinuria, cases ([3]; 25 subjects): 15 cases
- Related serious adverse event: hypokalemia ([3]; 25 subjects): electrolyte disturbance, 1 case of hypokalemia,
- Serious adverse events judged to be related to chiauranib (definitely related, possibly related, undetermined), cases ([3]; 25 subjects): 5 cases
- Suspension due to decreased appetite ([3]; 25 subjects): ventricular dysfunction, 1 case of infection, 1
- Suspension due to increased alanine aminotransferase ([3]; 25 subjects): 1 case
- Suspension due to infection ([3]; 25 subjects): ventricular dysfunction, 1 case of infection, 1
- Suspension due to proteinuria ([3]; 25 subjects): 2 cases
- Weight loss, % ([3]; 25 subjects): 56.0%
- Weight loss, cases ([3]; 25 subjects): 14 cases
- Serious adverse events, % of patients ([3]; 25 subjects, CTCAE V4.03): 32.0%
- Serious adverse events, cases ([3]; 25 subjects, CTCAE V4.03): 9 cases
- Serious adverse events, patients ([3]; 25 subjects, CTCAE V4.03): 8 patients
- Adverse event leading to the reduction of the dosage of chiauranib, % [3, 6]: 4.0%
- Adverse event leading to the reduction of the dosage of chiauranib, patients [3, 6]: One
- Adverse event leading to death, % ([3]; multiple organ dysfunction syndrome, 25 subjects): 4.0%
- Adverse event leading to death, patients ([3]; multiple organ dysfunction syndrome, relation to chiauranib undetermined, 25 subjects): One
- Tolerability of single-agent therapy ([3]; toxicity characteristics similar to VEGFR target drugs): can be tolerated by most subjects
